Laboratory results: US5760000A (University Technologies International,Inc., priority 1994, dated 1998)
Entries after “also recorded” stand apart in the source; their conditions may differ. Read-outs that look alike come from different tables or passages of the source. Non-standard residues stand in square brackets, D forms with d. Residues, ends and D or L forms follow the SMILES beside them. pGlu = O=C1CC[C@@H](C(=O)O)N1

What was measured:
[1] = test system: GnRH receptor (HepG2 membrane preparation); assay: GnRH in vitro binding to HepG2 membrane preparation (radioreceptor assay); design: species or system human; conditions: for Displacement / competitive inhibition of labeled [D-Lys6]-GnRH binding to HepG2 membrane preparation: unlabeled non-GnRH peptides, FIG. 2B; for Kd: 95% confidence interval in parentheses
Protocol: (§1) Cells were grown to confluence as previously described and harvested from the flasks by using a rubber policeman. The cells were washed in normal assay buffer (([…] Tris[hydroxymethyl] aminomethane[Tris]-HCl), containing 1 mM dithiothreitol and 0.5% BSA [fraction-V] (pH 7.6)) and precipitated by centrifugation at 500g for 5 minutes at 4° C.
(§2) The cleaned cells were homogenized in 50 ml of freshly prepared ice cold 25 mM sucrose in assay buffer containing 1 mM Phenylmethanesulphonyl fluoride and 5 mM Ethylenediaminetetraacetic acid, using a glass TEFLON (polytetra-fluoroethylene) homogenizer, followed by centrifugation at 100 ×g for 5 minutes (4° C.). The supernatant was further centrifuged at 17,000×g for 30 minutes at 4° C., and the pellet (crude membrane preparation) washed briefly and resuspended in the assay buffer (approximately 40-50 μg membrane protein or approximately 1 x 10^6 cell equivalent per 100 μl).
(§3) For protein determination, aliquots of crude membrane preparations were washed twice with double distilled water by centrifugation (25,000 ×g) and assayed for protein content, using BSA as the standard. The binding assay was carried out at 4° C.
(§4) The displacement curves were fitted for both single and two classes of binding sites by computer calculated lines, as described.
(§5) The potency of various GnRH-related peptides in terms of binding (equilibrium dissociation constant; kd) and growth suppression activity in the human hepatocarcinoma derived cell line HepG2 was studied. […] Data analysis was performed as described.
(§6) Homologous displacement of GnRH-related peptides in membrane homogenates prepared from HepG2 cells and non-cancerous postmortem human liver tissue was studied. Values (mean ± SEM) represent specific binding [B/T, bound over total, in %] determined by subtraction of non-saturable binding in the presence of excess peptides (10^-5 M). Results were obtained from 5 to 7 separated experiments, each carried out in triplicate. The binding data were analyzed by computerized Scatchard analysis (LIGAND) according to Munson and Rodbard.

[2] = test system: GnRH binding sites (normal human liver); assay: GnRH in vitro binding to non-cancerous postmortem human liver membrane preparation; conditions: for Displacement / competitive inhibition of labeled [D-Lys6]-GnRH binding to non-cancerous human liver membrane preparation: unlabeled non-GnRH peptides, FIG. 2D; for Kd: 95% confidence interval in parentheses, read-out: Receptor Binding Activity (Kd, nM) Normal Human Liver
Protocol: as §1, §2
(§7) A similar protocol was used to prepare the membrane from fresh rat and frozen human postmortem liver. In all experiments the final membrane preparation was used in the radioreceptor assay within 45 minutes.
as §3, §4, §6

[3] = test system: HepG2 cells; assay: HepG2 cell proliferation (cell counting); assay type: cell-based; conditions: for Effect on HepG2 cell proliferation: single administration at 10^-7 M, six days in culture
Protocol: HepG2 or HuH-7 cells were maintained in 75-cm^2 flasks at 37° C. under a humidified atmosphere of 5% CO2 in modified Minimum Essential Medium (Gibco-BRL) supplemented with 10% fetal bovine serum, 200mM 1-Glutamine (1%), Penicillin (1000 IU/ml), streptomycin (100 μg/ml) and sodium bicarbonate (0.15%). Cells grown to confluence were harvested following mild trypsinization and wash (twice by slow centrifugation; 400 g for 10 minutes) in normal culture medium.
Approximately 50,000 cells in 1.0 ml culture media were plated in 24 deep well plates (Flacon). This time was considered day -1. Cells were allowed to grow for one day. The growing cells were then treated with various hormones (at day 0) prepared aseptically in culture media immediately prior to addition. The final volume was maintained at 1 ml. The plates were then incubated at 37° C. for a period of 4 to 6 days, as described above.
Cells in each well were harvested by removal of culture media and incubation with 0.5 ml 0.25% trypsin and 1.75 mM EDTA for 30 minutes at 37° C. Cells were then transferred into 1.5 ml microfuge tubes and centrifuged at 100g for 10 minutes. The supernatant was removed and the pellet was resuspended in a final volume of 200 μl of culture media containing 10% trypan blue.
Cells were then counted using a hemocytometer. The average cell mortality was less than 5.0% and was not different among different treatment groups. Each value represents the mean and standard error of several experiments (n>3), each carried out in quadruplicate incubations at each time point and hormone concentration.
as §5
The effect of GnRH-related peptides on the proliferation of the human hepatoma derived cell line HepG2 was studied. Values (mean ± SEM) represent the percent change with respect to initial cell number at day 0 over a period of six days in culture.
The dose response curves were analyzed by a computerized, four parameter curve fitting program (ALLFIT) as described. The result of time-related response on cell proliferation was analyzed using a two-way ANOVA with multiple comparison means of using computerized statistical package (SYSTAT).

[4] = target: GnRH binding sites (normal rat liver); assay: GnRH in vitro binding to normal rat liver membrane preparation; conditions: 95% confidence interval in parentheses, read-out: Receptor Binding Activity (Kd, nM) Normal Rat Liver
Protocol: as §1, §2, §7, §3, §4

[5] = target: T1, normal pituitary cell GnRH receptors (Rattus norvegicus, UniProt P30969); assay: GnRH binding, normal rat pituitary; conditions: 95% confidence interval in parentheses, read-out: Receptor Binding Activity (Kd, nM) Normal Rat
T1 construct: normal pituitary cell GnRH receptors; from tissue; host or cells: normal rat pituitary
T1 sequence (P30969 1-327): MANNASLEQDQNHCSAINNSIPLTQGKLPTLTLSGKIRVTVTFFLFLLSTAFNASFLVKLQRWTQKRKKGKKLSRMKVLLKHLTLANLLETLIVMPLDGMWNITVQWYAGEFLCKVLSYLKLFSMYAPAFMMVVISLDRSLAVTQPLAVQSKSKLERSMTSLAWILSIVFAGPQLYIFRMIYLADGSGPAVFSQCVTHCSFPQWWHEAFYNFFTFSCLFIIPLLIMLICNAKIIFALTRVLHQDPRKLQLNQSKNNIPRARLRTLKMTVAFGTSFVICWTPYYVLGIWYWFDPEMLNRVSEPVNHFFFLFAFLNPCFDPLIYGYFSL
Protocol: as §4
Data analysis was performed as described.

[6] = test system: mammalian pituitary; conditions: reference [11]; cited from earlier work
[7] = Labeled ligand 125I-[D-Lys6]-GnRH
[8] = Labeled ligand 125I-[D-Lys6]-GnRH, 4° C.
[9] = Labeled ligand 125I-[D-Arg6]-sGnRH-A

Row | Compound | Displacement / competitive inhibition of labeled [D-Lys6]-GnRH binding to HepG2 membrane preparation [1] | Displacement / competitive inhibition of labeled [D-Lys6]-GnRH binding to non-cancerous human liver membrane preparation [2] | Effect on HepG2 cell proliferation [3] | Kd [4, 7] [nM] | Kd [5, 7] [nM] | Suppression of HepG2 growth ED50 [3] [nM] | Kd [1, 8] [nM] | other results
1 | α-melanocyte stimulating hormone [α-MSH, reference compound] | did not displace; also recorded: did not show competitive inhibition | did not displace | lack of effect; also recorded: did not |  |  |  |  | 
2 | NC(=O)[C@@H]1CCCN1C(=O)[C@H](Cc1cnc[nH]1)NC(=O)[C@@H]1CCC(=O)N1 [TRH, Thyrotropin releasing hormone] | did not show competitive inhibition | did not displace |  |  |  |  |  | Displacement / competitive inhibition of labeled [D-Lys6]-GnRH binding to HepG2 membrane preparation ([1]; listed as Thyrotropin releasing hormone (TRH)): did not displace
3 | CC(C)C[C@H](NC(=O)[C@H](Cc1c[nH]c2ccccc12)NC(=O)CNC(=O)[C@H](Cc1ccc(O)cc1)NC(=O)[C@H](CO)NC(=O)[C@H](Cc1c[nH]c2ccccc12)NC(=O)[C@H](Cc1c[nH]cn1)NC(=O)[C@@H]1CCC(=O)N1)C(=O)N1CCC[C@H]1C(=O)NCC(N)=O [sGnRH] ([pGlu]HWSYGWLPG-NH2) |  |  | suppressed | 1560 | 179 | 7.55 |  | Kd [2, 7]: 7140 nM; Potency in releasing gonadotropin from mammalian pituitary compared to mammalian based GnRH analogs [6]: significantly lower potency
4 | CC(C)C[C@H](NC(=O)CNC(=O)[C@H](Cc1ccc(O)cc1)NC(=O)[C@H](CO)NC(=O)[C@H](Cc1c[nH]c2ccccc12)NC(=O)[C@H](Cc1c[nH]cn1)NC(=O)[C@@H]1CCC(=O)N1)C(=O)N[C@@H](CCCNC(=N)N)C(=O)N1CCC[C@H]1C(=O)NCC(N)=O [GnRH, reference compound] |  |  | suppressed | 384 |  |  | 9.17 | 
5 | CC(C)C[C@H](NC(=O)[C@H](CO)NC(=O)[C@H](Cc1ccc(O)cc1)NC(=O)[C@H](Cc1c[nH]cn1)NC(=O)[C@@H]1CCC(=O)N1)C(=O)N[C@@H](CCC(=O)O)C(=O)N[C@@H](Cc1c[nH]c2ccccc12)C(=O)N[C@@H](CCCCN)C(=O)N1CCC[C@H]1C(=O)NCC(N)=O [lGnRH] ([pGlu]HYSLEWKPG-NH2) |  |  | suppressed | 8330 | 2 | 1.5 | 66.6 | Kd [2, 7]: 6660 nM; Gonadotropin release activity in rat and sheep pituitary [6]: little; Potency in releasing gonadotropin from mammalian pituitary compared to mammalian based GnRH analogs [6]: significantly lower potency
6 | CC(C)C[C@H](NC(=O)CNC(=O)[C@H](Cc1c[nH]cn1)NC(=O)[C@H](CO)NC(=O)[C@H](Cc1c[nH]c2ccccc12)NC(=O)[C@H](Cc1c[nH]cn1)NC(=O)[C@@H]1CCC(=O)N1)C(=O)N[C@@H](CC(N)=O)C(=O)N1CCC[C@H]1C(=O)NCC(N)=O [cfGnRH] ([pGlu]HWSHGLNPG-NH2) |  |  | suppressed | 8330 | 140 | 2.29 | 17.9 | 
7 | Met Enkephalin [Met-Enkephalin] | did not show competitive inhibition | did not displace |  |  |  |  |  | Displacement / competitive inhibition of labeled [D-Lys6]-GnRH binding to HepG2 membrane preparation ([1]; listed as Met Enkephalin): did not displace
8 | CCNC(=O)[C@@H]1CCCN1C(=O)[C@H](CC(C)C)NC(=O)[C@H](Cc1c[nH]c2ccccc12)NC(=O)[C@@H](CCCNC(=N)N)NC(=O)[C@H](Cc1ccc(O)cc1)NC(=O)[C@H](CO)NC(=O)[C@H](Cc1c[nH]c2ccccc12)NC(=O)[C@H](Cc1c[nH]cn1)NC(=O)[C@@H]1CCC(=O)N1 [[D-Arg^6]-sGnRH-A, pGlu-His-Trp-Ser-Tyr-DArg-Trp-Leu-Pro-N-ethylamide] ([pGlu]HWSY[dR]WLP-NHEt) |  |  |  |  |  |  |  | Kd [1, 9]: 7.09 nM; Kd [2, 9]: 3850 nM; Kd [4, 9]: 833 nM; Kd [5, 9]: 0.334 nM
